The text below walks through data of PMC12502564, “Evaluation of LLM-generated peptide as foundation template for discovery of effective encrypted AMPs against clinical superbugs” (Microbiology Spectrum, 2025).

Data set [1] deals with CRAB. As to the kind of experiment: PI assay, cytoplasmic membrane integrity. Format: cell-based, carbapenem-resistant Acinetobacter baumannii. The settings on record: 1 × MIC, 10^8 CFU mL^−1. As to the method: PI (which is known to stain nuclear chromatin upon cell membrane disruption) assay was carried out to evaluate the ability of AMPs to disrupt the cytoplasmic membrane integrity ([63]). After CRAB was grown to the exponential phase, bacteria cells were harvested and washed three times in washing buffer of 5 mM glucose and 5 mM HEPES (1:1, pH = 7.2) and then re-adjusted to 10^8 CFU mL^−1 in the same buffer. Bacterial suspensions (150 µL/well) were loaded into black-walled, clear-bottom 96-well plates with lids. Following bacterial loading, 50 µL of 10 µM PI was introduced into each well, with 30 min pre-incubation CRAB. Post-incubation fluorescence signals were acquired using 535 nm excitation and 617 nm emission wavelengths. Compounds (10 µL) were then administered to achieve 1 × MIC/10 × MIC-equivalent final concentrations in the dye-loaded bacterial suspensions. Real-time fluorescence monitoring was performed with continuous acquisition during the first 10 min, followed by measurements at 10-min intervals. Negative controls received 10 µL sterile water in lieu of antimicrobial peptides while maintaining equivalent pre-incubation conditions. All experimental conditions were executed with three biological replicates.

The test system of data set [2] is CRPA 2403282. Format: cell-based, carbapenem-resistant P. aeruginosa. As to the method:
The MIC of all peptides was determined using the microdilution broth method in a 96-well plate. Peptides were dissolved in the DMSO with an initial concentration of 12,800 µg mL^−1. And cells of eight strains were separately suspended in the MHB at a density of approximately 10^5 CFU mL^−1. In the first column of the 96-well plate, 16 µL of peptide and 184 µL of MHB were added to each well to achieve a final concentration of 1,024 µg mL^−1. One-hundred microliters of MHB was added to each of the remaining wells. Then the first column of liquid was mixed well and diluted to the 12th column using the twofold dilution method. One-hundred microliters of prepared bacterial solution was added to all wells, and the 96-well plate was incubated at 37°C for 18–24 h. The MIC was defined as the concentration of the peptide in the well just preceding the first well showing visible turbidity. All experiments were performed in triplicate to ensure reliability.

In data set [3] the test system is CRAB 2210186. The settings on record: 10% fetal bovine serum, room temperature, 1–6 h, then MIC assay, triplicate.
Experimental: For serum sensitivity experiments, the peptide to be tested was incubated in 10% fetal bovine serum at room temperature for 1–6 h. After deactivation, the MICs of peptides against CRAB 2210186 and MRSA 2210187 were measured using the MIC assay. All experiments were performed in triplicate to ensure reliability.
Data set [4] concerns CRAB. The experiment in a line: ROS accumulation assay (DCFH-DA). The note with it: 10 µM DCFH-DA, 2 h incubation. Type of data set: cell-based, carbapenem-resistant Acinetobacter baumannii. As to the method: Bacteria in the logarithmic growth phase were prepared to OD600 = 0.5. Ten microliters of DCFH-DA was added to 190 µL of bacterial solution to a final concentration of 10 µM and incubated at 37°C for 30 min. After washing with PBS three times, 190 µL of probe-labeled bacterial cells were added to a 96-well plate, and 10 µL of the sample to be tested was added. After incubation for another 2 h, the fluorescence intensity was immediately measured using a microplate reader with an excitation wavelength of 488 nm and an emission wavelength of 525 nm. The antioxidant NAC (6 mM) was used as a control to neutralize the production of ROS.

No end group written: not given here.

WLKRILKWIGNKLKW [PL-15]: the “PI fluorescence (cytoplasmic membrane integrity)” value in data set [1] was “stronger fluorescence signal compared to polymyxin B and control”. This sequence came in with a minimum inhibitory concentration (MIC) in data set [2] of 64 µg/mL. In addition, in data set [3], the “fold change in MIC after incubation in serum” value was “maximum twofold increase”. The “ROS levels (DCF fluorescence)” value in data set [4] was “concentration-dependent surge in ROS levels”.
